From ChEMBL document CHEMBL1201862, “PubChem BioAssay data set” (2004)
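Briefly, cells in 96-well plates were exposed to five compound concentrations for 48 h, and endpoints were estimated by linear interpolation. GI50 is the concentration that inhibits growth by half.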 Active and inactive are the calls of the source. Cut-off read from the data, not from the text of the source: active = GI50 up to about 1.1 µM and inactive = higher.

Columns and labels:
Assay in all cases: growth of human tumour cells (NCI), 48 h
786-0 = tested on: 786-0
BT-549 = tested on: BT-549
COLO 205 = tested on: COLO 205
HCT-116 = tested on: HCT-116
HOP-62 = tested on: HOP-62
HOP-92 = tested on: HOP-92
Hs-578T = tested on: Hs-578T
OVCAR-3 = tested on: OVCAR-3
OVCAR-5 = tested on: OVCAR-5
SF-268 = tested on: SF-268
SF-539 = tested on: SF-539
SK-MEL-2 = tested on: SK-MEL-2
SK-MEL-5 = tested on: SK-MEL-5
SW-620 = tested on: SW-620
TK-10 = tested on: TK-10
U-251 = tested on: U-251
UACC-257 = tested on: UACC-257
UO-31 = tested on: UO-31
HCC 2998 = tested on: HCC 2998
SR = tested on: SR

| SMILES | GI50 (786-0) | GI50 (BT-549) | GI50 (COLO 205) | GI50 (HCT-116) | GI50 (HOP-62) | GI50 (HOP-92) | GI50 (Hs-578T) | GI50 (OVCAR-3) | GI50 (OVCAR-5) | GI50 (SF-268) | GI50 (SF-539) | GI50 (SK-MEL-2) | GI50 (SK-MEL-5) | GI50 (SW-620) | GI50 (TK-10) | GI50 (U-251) | GI50 (UACC-257) | GI50 (UO-31) | GI50 (HCC 2998) | GI50 (SR) |
| --- | --- | --- | --- | --- | --- | --- | --- | --- | --- | --- | --- | --- | --- | --- | --- | --- | --- | --- | --- | --- |
| Nc1nnnn1CCO | > 100 µM (inactive) | > 100 µM (inactive) | > 100 µM (inactive) | > 100 µM (inactive) | > 100 µM (inactive) | > 100 µM (inactive) | > 100 µM (inactive) | > 100 µM (inactive) | > 100 µM (inactive) | > 100 µM (inactive) | > 100 µM (inactive) | > 100 µM (inactive) | > 100 µM (inactive) | > 100 µM (inactive) | > 100 µM (inactive) | > 100 µM (inactive) | > 100 µM (inactive) | > 100 µM (inactive) |  |  |
| O=C1NC(=O)C2(CCCCCC2)N1 | > 100 µM (inactive) | > 100 µM (inactive) | > 100 µM (inactive) | > 100 µM (inactive) | > 100 µM (inactive) | > 100 µM (inactive) | > 100 µM (inactive) | > 100 µM (inactive) | > 100 µM (inactive) | > 100 µM (inactive) | > 100 µM (inactive) | > 100 µM (inactive) | > 100 µM (inactive) | > 100 µM (inactive) | > 100 µM (inactive) | > 100 µM (inactive) | > 100 µM (inactive) | > 100 µM (inactive) |  |  |
| CC1N(C)C(=O)OC12CCN(CCCC(=O)c1ccc(F)cc1)CC2 (stereo unspecified) | > 100 µM (inactive) | > 100 µM (inactive) | > 100 µM (inactive) | > 100 µM (inactive) | > 100 µM (inactive) |  | > 100 µM (inactive) | > 100 µM (inactive) | > 100 µM (inactive) | > 100 µM (inactive) | > 100 µM (inactive) | > 100 µM (inactive) | > 100 µM (inactive) | > 100 µM (inactive) | > 100 µM (inactive) | > 100 µM (inactive) | > 100 µM (inactive) | > 100 µM (inactive) |  |  |
| CCOC(=O)c1c(C)n(Cc2ccccc2)c2c1cc(O)c1[nH]c3c(c12)CCCC3 | 16.1 µM (inactive) | 11.7 µM (inactive) | 5.85 µM (inactive) | 6.1 µM (inactive) | 11.7 µM (inactive) | < 0.01 µM (active) | 2.25 µM (inactive) | 2.2 µM (inactive) | 7.08 µM (inactive) | 1.81 µM (inactive) | 1.95 µM (inactive) | 2.31 µM (inactive) | 3.98 µM (inactive) | 3.65 µM (inactive) | 10.6 µM (inactive) | 1.81 µM (inactive) | 17.5 µM (inactive) | 2.58 µM (inactive) |  |  |
| CCOC(=O)/C(=C/Nc1c(C)n(C)n(-c2ccccc2)c1=O)C(C)=O | > 100 µM (inactive) | > 100 µM (inactive) | > 100 µM (inactive) | > 100 µM (inactive) |  | > 100 µM (inactive) |  | > 100 µM (inactive) | > 100 µM (inactive) |  | > 100 µM (inactive) | > 100 µM (inactive) | > 100 µM (inactive) | > 100 µM (inactive) | > 100 µM (inactive) | > 100 µM (inactive) | > 100 µM (inactive) | > 100 µM (inactive) | > 100 µM (inactive) | > 100 µM (inactive) |
| CCc1nc2ccc(/N=N/N(C)C)cc2[nH]1 | > 100 µM (inactive) | > 100 µM (inactive) | > 100 µM (inactive) | > 100 µM (inactive) | > 100 µM (inactive) |  | > 100 µM (inactive) | > 100 µM (inactive) | > 100 µM (inactive) | > 100 µM (inactive) |  | > 100 µM (inactive) | > 100 µM (inactive) | > 100 µM (inactive) | > 100 µM (inactive) | > 100 µM (inactive) | > 100 µM (inactive) | > 100 µM (inactive) | > 100 µM (inactive) |  |
| COc1cc(/N=N/N(C)C)c(C(C)c2c3cc(OC)c(OC)cc3cc[n+]2C)cc1OC (stereo unspecified) | 51.8 µM (inactive) | 46.9 µM (inactive) | 14.8 µM (inactive) | 30 µM (inactive) | 49.7 µM (inactive) |  | 63.5 µM (inactive) | 26.7 µM (inactive) | > 100 µM (inactive) | 31.3 µM (inactive) | 10.3 µM (inactive) | 24.9 µM (inactive) | 21.4 µM (inactive) | 85.7 µM (inactive) | 31.6 µM (inactive) | 38.6 µM (inactive) | 38 µM (inactive) | > 100 µM (inactive) | 34.6 µM (inactive) |  |
| NC(c1ccccc1)(C(F)(F)F)P1(=O)OC(=O)c2ccccc2O1 (stereo unspecified) | > 100 µM (inactive) | > 100 µM (inactive) | > 100 µM (inactive) | > 100 µM (inactive) | > 100 µM (inactive) | 20.9 µM (inactive) |  | > 100 µM (inactive) | > 100 µM (inactive) | > 100 µM (inactive) | > 100 µM (inactive) | > 100 µM (inactive) | 8.07 µM (inactive) | > 100 µM (inactive) | > 100 µM (inactive) | > 100 µM (inactive) | > 100 µM (inactive) | > 100 µM (inactive) | > 100 µM (inactive) | 71.8 µM (inactive) |
| CN(N)/N=N/c1[nH]cnc1[N+](=O)[O-] | 18.7 µM (inactive) | > 100 µM (inactive) | > 100 µM (inactive) | 34.8 µM (inactive) | > 100 µM (inactive) |  | > 100 µM (inactive) | > 100 µM (inactive) | > 100 µM (inactive) | 42.9 µM (inactive) | 46.6 µM (inactive) | > 100 µM (inactive) | > 100 µM (inactive) | 81.1 µM (inactive) | > 100 µM (inactive) | > 100 µM (inactive) | > 100 µM (inactive) | 61.1 µM (inactive) | > 100 µM (inactive) |  |
| CC(C(=O)N1C(=O)N(C(=O)[C@H](C)C(O)c2ccccc2)[C@H](c2ccccc2)[C@H]1c1ccccc1)[C@@H](O)c1ccccc1 (stereo partly specified) | 29.2 µM (inactive) | 6.04 µM (inactive) | 18.7 µM (inactive) | 34.2 µM (inactive) | 37.1 µM (inactive) | 25.6 µM (inactive) |  |  | 25.2 µM (inactive) | 38.2 µM (inactive) | 22.2 µM (inactive) | 16.9 µM (inactive) | 14.9 µM (inactive) | 45.2 µM (inactive) | 41.2 µM (inactive) | 35.9 µM (inactive) | 28.4 µM (inactive) | 31.5 µM (inactive) | 36.7 µM (inactive) | 0.118 µM (active) |
| O=c1nc2n3c4c(cccc4nc-2c(=O)[nH]1)CCC3 | > 100 µM (inactive) | > 100 µM (inactive) | 47 µM (inactive) | 47.5 µM (inactive) | > 100 µM (inactive) |  | 28.2 µM (inactive) | 14 µM (inactive) | > 100 µM (inactive) | > 100 µM (inactive) | > 100 µM (inactive) | > 100 µM (inactive) | > 100 µM (inactive) | > 100 µM (inactive) | > 100 µM (inactive) | > 100 µM (inactive) | > 100 µM (inactive) | > 100 µM (inactive) | > 100 µM (inactive) |  |
